# Results taken from ChEMBL document CHEMBL3853264 (Medchemcomm, 2016).
# Experiments:
# [1] = Intrinsic clearance in rat liver microsomes; assay type: ADME; details: read-out: CLH
# P-gp = experiment: Substrate activity at p-gp (unknown origin) assessed as efflux ratio of permeability; assay type: ADME; details: human, not told
# BCRP (ABCG2) = BCRP (ABCG2) (Homo sapiens, UniProt Q9UNQ0); experiment: Substrate activity at BCRP (unknown origin) assessed as efflux ratio of permeability; assay type: ADME; details: not told
# Chain of BCRP (ABCG2) (Q9UNQ0 whole entry): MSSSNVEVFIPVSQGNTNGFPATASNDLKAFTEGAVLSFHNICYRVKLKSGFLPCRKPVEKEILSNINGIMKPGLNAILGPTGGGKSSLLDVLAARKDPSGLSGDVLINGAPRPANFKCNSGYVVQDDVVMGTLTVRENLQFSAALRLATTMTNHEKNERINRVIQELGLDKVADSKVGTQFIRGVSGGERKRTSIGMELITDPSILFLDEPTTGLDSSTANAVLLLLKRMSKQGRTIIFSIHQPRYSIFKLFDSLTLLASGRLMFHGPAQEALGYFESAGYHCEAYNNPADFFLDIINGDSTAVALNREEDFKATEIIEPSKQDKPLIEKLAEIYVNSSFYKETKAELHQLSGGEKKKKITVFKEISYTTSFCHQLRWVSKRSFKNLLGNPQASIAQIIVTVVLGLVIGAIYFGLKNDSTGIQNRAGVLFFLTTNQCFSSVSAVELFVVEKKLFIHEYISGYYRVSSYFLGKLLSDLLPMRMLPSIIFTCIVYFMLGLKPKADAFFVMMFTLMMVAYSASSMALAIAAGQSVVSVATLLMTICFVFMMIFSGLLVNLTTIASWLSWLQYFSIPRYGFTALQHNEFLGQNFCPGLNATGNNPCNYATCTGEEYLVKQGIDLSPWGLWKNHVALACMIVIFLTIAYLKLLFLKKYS
# [2] = Solubility of the compound at pH 6.5; assay type: physicochemical; details: buffer
# [3] = Dissociation constant, pKa of the compound; assay type: physicochemical
# [4] = Intrinsic clearance in human liver microsomes; assay type: ADME; details: read-out: CLH
# [5] = Octanol-water partition co-efficient, log D of the compound by shake flask method; assay type: physicochemical
# [6] = Permeability in RRCK cells; assay type: ADME, cell-based, Canis lupus familiaris, MDCKII-LE; details: dog, MDCK; read-out: permeability
# [7] = Intrinsic clearance in dog liver microsomes; assay type: ADME, Canis lupus familiaris; details: read-out: CLH
# [8] = Fraction unbound in human plasma; assay type: ADME, cell-free
# [9] = Fraction unbound in rat plasma; assay type: ADME, cell-free
# [10] = Fraction unbound in dog plasma; assay type: ADME, cell-free, Canis lupus familiaris
# [11] = target: Solute carrier organic anion transporter family member 1B1 (Homo sapiens, UniProt Q9Y6L6); experiment: Drug uptake assessed as human OATP1B1-mediated drug accumulation by cell-based assay relative to wild type protein; assay type: ADME
# [12] = target: Solute carrier organic anion transporter family member 1B3 (Homo sapiens, UniProt Q9NPD5); experiment: Drug uptake assessed as human OATP1B3-mediated drug accumulation by cell-based assay relative to wild type protein; assay type: ADME
# [13] = target: Solute carrier organic anion transporter family member 2B1 (Homo sapiens, UniProt O94956); experiment: Drug uptake assessed as human OATP2B1-mediated drug accumulation by cell-based assay relative to wild type protein; assay type: ADME
# Cytochrome P450 1A2 = Cytochrome P450 1A2 (Homo sapiens, UniProt P05177); experiment: Inhibition of CYP1A2 (unknown origin); assay type: ADME
# Chain of Cytochrome P450 1A2 (P05177 whole entry): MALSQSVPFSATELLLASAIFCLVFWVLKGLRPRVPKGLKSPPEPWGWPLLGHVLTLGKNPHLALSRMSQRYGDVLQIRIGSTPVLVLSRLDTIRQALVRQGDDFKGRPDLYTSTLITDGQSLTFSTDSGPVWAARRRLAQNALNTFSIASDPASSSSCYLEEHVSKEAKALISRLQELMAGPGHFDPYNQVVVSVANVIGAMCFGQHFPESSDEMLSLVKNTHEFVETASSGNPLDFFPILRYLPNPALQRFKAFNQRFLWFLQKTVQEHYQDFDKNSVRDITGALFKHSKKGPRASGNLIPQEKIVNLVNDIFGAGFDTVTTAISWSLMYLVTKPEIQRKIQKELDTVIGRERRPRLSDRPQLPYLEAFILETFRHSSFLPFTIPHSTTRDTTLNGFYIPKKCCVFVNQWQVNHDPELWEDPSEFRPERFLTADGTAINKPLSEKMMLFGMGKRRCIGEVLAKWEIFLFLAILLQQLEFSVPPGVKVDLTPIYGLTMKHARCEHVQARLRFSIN
# Cytochrome P450 2C8 = Cytochrome P450 2C8 (Homo sapiens, UniProt P10632); experiment: Inhibition of CYP2C8 (unknown origin); assay type: ADME
# Chain of Cytochrome P450 2C8 (P10632 whole entry): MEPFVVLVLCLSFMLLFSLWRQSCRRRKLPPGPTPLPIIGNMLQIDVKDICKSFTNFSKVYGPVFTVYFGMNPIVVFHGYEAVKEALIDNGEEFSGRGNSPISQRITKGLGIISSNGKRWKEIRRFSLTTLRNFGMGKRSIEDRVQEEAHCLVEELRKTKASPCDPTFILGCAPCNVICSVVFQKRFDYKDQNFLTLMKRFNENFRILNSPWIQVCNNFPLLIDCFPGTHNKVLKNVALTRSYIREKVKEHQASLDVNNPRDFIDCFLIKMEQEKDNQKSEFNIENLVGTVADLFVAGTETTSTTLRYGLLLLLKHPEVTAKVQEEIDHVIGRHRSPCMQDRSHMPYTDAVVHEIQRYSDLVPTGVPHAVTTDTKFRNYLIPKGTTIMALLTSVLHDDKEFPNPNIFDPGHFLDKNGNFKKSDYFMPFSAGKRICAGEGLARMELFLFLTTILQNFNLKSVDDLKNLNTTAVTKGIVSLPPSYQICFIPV
# Cytochrome P450 2C9 = Cytochrome P450 2C9 (Homo sapiens, UniProt P11712); experiment: Inhibition of CYP2C9 (unknown origin); assay type: ADME
# Chain of Cytochrome P450 2C9 (P11712 whole entry): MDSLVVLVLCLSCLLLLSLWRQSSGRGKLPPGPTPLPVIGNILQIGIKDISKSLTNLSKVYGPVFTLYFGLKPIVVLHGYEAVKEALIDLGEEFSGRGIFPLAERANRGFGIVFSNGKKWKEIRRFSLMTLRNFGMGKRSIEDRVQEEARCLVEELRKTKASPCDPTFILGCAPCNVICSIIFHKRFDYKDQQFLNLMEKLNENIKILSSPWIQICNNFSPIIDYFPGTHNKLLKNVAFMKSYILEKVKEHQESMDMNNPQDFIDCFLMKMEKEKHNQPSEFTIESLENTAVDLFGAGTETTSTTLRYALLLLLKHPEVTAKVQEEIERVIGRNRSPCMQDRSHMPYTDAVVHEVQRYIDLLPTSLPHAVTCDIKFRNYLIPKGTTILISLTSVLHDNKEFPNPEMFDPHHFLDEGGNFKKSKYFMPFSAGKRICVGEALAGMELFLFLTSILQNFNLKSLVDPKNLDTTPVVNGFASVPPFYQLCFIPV
# Cytochrome P450 2C19 = Cytochrome P450 2C19 (Homo sapiens, UniProt P33261); experiment: Inhibition of CYP2C19 (unknown origin); assay type: ADME
# Cytochrome P450 2D6 = Cytochrome P450 2D6 (Homo sapiens, UniProt P10635); experiment: Inhibition of CYP2D6 (unknown origin); assay type: ADME
# Chain of Cytochrome P450 2D6 (P10635 whole entry): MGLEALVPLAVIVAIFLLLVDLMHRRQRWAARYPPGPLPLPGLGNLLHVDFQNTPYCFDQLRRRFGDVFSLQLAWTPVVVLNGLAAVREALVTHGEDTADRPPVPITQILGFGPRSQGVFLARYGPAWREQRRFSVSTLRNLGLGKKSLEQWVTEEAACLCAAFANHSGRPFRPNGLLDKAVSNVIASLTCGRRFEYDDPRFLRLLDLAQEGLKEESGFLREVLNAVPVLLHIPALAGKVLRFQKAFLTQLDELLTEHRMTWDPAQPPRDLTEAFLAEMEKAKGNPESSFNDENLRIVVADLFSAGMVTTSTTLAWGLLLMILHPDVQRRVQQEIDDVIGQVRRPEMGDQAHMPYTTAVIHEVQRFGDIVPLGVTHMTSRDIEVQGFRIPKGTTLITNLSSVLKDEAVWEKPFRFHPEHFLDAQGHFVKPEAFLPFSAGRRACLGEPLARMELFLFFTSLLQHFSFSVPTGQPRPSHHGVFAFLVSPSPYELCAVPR
# Cytochrome P450 3A4 = Cytochrome P450 3A4 (Homo sapiens, UniProt P08684); experiment: Inhibition of CYP3A4 (unknown origin); assay type: ADME
# Chain of Cytochrome P450 3A4 (P08684 whole entry): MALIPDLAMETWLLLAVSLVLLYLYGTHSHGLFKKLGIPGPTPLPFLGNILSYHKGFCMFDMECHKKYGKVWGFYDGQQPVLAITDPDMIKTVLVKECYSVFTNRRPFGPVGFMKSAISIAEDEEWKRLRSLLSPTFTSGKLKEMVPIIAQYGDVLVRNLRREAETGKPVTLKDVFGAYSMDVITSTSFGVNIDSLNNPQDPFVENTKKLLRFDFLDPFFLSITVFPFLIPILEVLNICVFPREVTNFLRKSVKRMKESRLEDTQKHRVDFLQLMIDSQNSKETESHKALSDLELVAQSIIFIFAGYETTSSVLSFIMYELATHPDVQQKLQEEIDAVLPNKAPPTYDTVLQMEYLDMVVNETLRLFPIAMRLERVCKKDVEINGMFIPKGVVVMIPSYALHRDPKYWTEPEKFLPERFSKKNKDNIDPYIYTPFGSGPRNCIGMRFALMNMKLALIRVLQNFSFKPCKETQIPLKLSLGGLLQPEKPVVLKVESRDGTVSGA
# [14] = target: Solute carrier family 22 member 6 (Homo sapiens, UniProt Q4U2R8); experiment: Inhibition of OAT1 (unknown origin)
# Chain of Solute carrier family 22 member 6 (Q4U2R8 whole entry): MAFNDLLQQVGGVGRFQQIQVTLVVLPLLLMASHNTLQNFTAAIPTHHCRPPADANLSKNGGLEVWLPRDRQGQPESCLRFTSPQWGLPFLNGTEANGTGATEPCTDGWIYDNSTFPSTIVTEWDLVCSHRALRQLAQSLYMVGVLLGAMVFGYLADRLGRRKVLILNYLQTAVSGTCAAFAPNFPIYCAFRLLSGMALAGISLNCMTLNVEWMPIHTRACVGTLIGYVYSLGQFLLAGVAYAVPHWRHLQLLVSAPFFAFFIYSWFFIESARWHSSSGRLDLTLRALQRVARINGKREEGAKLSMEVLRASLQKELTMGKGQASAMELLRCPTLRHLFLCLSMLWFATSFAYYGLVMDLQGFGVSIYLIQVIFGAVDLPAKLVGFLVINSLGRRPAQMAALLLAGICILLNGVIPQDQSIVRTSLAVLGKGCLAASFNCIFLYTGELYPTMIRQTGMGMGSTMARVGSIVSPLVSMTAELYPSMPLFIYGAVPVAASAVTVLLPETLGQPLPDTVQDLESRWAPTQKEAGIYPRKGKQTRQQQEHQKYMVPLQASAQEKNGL
# [15] = target: Organic anion transporter 3 (Homo sapiens, UniProt Q8TCC7); experiment: Inhibition of OAT3 (unknown origin)
# [16] = target: Solute carrier family 22 member 11 (Homo sapiens, UniProt Q9NSA0); experiment: Inhibition of OAT4 (unknown origin)
# [17] = Cytotoxicity against THLE cells; assay type: toxicity, cell-based; details: human
# [18] = Mutagenicity in […] by Ames test in presence of […] fraction; assay type: toxicity
# [19] = Mutagenicity in […] by Ames test in absence of […] fraction; assay type: toxicity
# [20] = target: Voltage-gated inwardly rectifying potassium channel KCNH2 (Homo sapiens, UniProt Q12809); experiment: Inhibition of human ERG by patch clamp method
# Chain of Voltage-gated inwardly rectifying potassium channel KCNH2 (Q12809 whole entry): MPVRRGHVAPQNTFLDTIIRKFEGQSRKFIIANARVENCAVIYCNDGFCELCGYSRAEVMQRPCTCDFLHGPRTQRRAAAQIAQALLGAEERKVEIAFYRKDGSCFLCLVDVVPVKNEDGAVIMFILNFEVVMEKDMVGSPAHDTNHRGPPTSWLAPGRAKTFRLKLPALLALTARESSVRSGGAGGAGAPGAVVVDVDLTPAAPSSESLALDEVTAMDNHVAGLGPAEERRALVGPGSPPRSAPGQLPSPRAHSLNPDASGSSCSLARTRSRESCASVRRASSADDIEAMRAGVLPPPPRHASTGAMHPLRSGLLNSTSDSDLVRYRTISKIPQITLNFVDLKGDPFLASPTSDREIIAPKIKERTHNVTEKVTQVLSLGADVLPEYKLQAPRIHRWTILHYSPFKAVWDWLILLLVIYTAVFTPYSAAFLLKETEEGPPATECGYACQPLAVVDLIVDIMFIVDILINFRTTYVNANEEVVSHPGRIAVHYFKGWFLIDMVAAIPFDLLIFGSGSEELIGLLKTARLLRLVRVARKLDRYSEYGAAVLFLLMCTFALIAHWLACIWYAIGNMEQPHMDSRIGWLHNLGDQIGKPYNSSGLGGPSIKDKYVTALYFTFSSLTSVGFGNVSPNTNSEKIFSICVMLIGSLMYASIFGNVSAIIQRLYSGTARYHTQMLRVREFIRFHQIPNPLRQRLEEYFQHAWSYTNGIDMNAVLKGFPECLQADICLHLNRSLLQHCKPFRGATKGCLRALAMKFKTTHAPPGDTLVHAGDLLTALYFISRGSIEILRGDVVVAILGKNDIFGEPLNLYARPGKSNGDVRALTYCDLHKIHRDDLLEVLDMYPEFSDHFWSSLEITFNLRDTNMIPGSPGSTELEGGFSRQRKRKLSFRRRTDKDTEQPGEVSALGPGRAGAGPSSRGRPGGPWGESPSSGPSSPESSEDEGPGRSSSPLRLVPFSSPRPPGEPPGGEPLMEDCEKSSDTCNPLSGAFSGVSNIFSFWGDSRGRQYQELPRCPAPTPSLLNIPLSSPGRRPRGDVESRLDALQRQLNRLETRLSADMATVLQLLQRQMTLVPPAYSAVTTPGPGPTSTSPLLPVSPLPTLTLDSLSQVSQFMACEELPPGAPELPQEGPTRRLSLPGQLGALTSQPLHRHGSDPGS
# [21] = target: Sodium channel protein type 5 subunit alpha (Homo sapiens, UniProt Q14524); experiment: Inhibition of human NaV1.5 expressed in HEK293 cells by patch clamp method; assay type: cell-based
# [22] = target: Sodium channel protein type 9 subunit alpha (Homo sapiens, UniProt Q15858); experiment: Inhibition of NaV1.7 (unknown origin) by electrophysiology assay
# [23] = Inhibition of GABAA receptor (unknown origin); parameters: species or system Homo sapiens
# [24] = Intrinsic clearance in human hepatocytes assessed per 10^6 cells; assay type: ADME, cell-based, Hepatocyte; details: read-out: CLH
# [25] = Intrinsic clearance in rat hepatocytes assessed per 10^6 cells; assay type: ADME, cell-based, Hepatocyte; details: read-out: CLH
# [26] = Intrinsic clearance in dog hepatocytes assessed per 10^6 cells; assay type: ADME, cell-based, Canis lupus familiaris, Hepatocyte; details: read-out: CLH
# [27] = Plasma clearance in rat at 0.5 mg/kg, iv and 1 mg/kg, po; assay type: ADME, organism-based
# [28] = Unbound clearance in rat at 0.5 mg/kg, iv and 1 mg/kg, po; assay type: ADME, organism-based; details: in vivo
# [29] = Half life in rat at 0.5 mg/kg, iv and 1 mg/kg, po; assay type: ADME, organism-based; details: in vivo
# [30] = Volume of distribution at steady state in rat at 0.5 mg/kg, iv and 1 mg/kg, po; assay type: ADME, organism-based; details: in vivo, read-out: Vdss
# [31] = Oral bioavailability in rat at 1 mg/kg; assay type: ADME, organism-based; details: in vivo
# [32] = Drug excretion in bile of bile duct cannulated rat; assay type: ADME; details: read-out: Drug excretion
# [33] = Drug metabolism in human liver microsomes assessed as 2-chloro-4-(2-cyano-4-(N-(5-fluoropyridin-2-yl)sulfamoyl)phenoxy)benzoic acid formation; assay type: ADME
# [34] = Drug metabolism in human hepatocytes assessed as 2-chloro-4-(2-cyano-4-(N-(5-fluoropyridin-2-yl)sulfamoyl)phenoxy)benzoic acid formation; assay type: ADME, cell-based, Hepatocyte
# [35] = Drug metabolism in rat hepatocytes assessed as (2S,3S,4S,5R,6R)-6-(2-chloro-4-(2-cyano-4-(N-(5-fluoropyridin-2-yl)sulfamoyl)phenoxy)benzyloxy)-3,4,5-trihydroxytetrahydro-2H-pyran-2-carboxylic acid formation; assay type: ADME, cell-based, Hepatocyte
# [36] = Toxicity in po dosed dog measured assessed as drug tolerance measured over 14 days; assay type: organism-based, Canis lupus familiaris; details: in vivo, 336 h
# [37] = Toxicity in dog up to 100 mg/kg/day, po measured over 14 days by clinical pathology test; assay type: organism-based, Canis lupus familiaris; details: in vivo, 336 h
# Rattus norvegicus [38] = experiment: Toxicity in rat assessed as change in body weight up to 300 mg/kg/day, po measured over 14 days; assay type: organism-based; details: in vivo, 336 h
# Rattus norvegicus [39] = experiment: Toxicity in rat assessed as change in food consumption up to 300 mg/kg/day, po measured over 14 days; assay type: organism-based; details: in vivo, 336 h
# Rattus norvegicus [40] = experiment: Toxicity in rat assessed as hematological changes up to 300 mg/kg/day, po measured over 14 days; assay type: organism-based; details: in vivo, 336 h
# Rattus norvegicus [41] = experiment: Toxicity in rat up to 300 mg/kg/day, po measured over 14 days by clinical chemistry study; assay type: organism-based; details: in vivo, 336 h
# Rattus norvegicus [42] = experiment: Toxicity in rat assessed as change in organ weight up to 300 mg/kg/day, po measured over 14 days; assay type: organism-based; details: in vivo, 336 h
# Rattus norvegicus [43] = experiment: Toxicity in rat up to 300 mg/kg/day, po measured over 14 days by necropsy; assay type: organism-based; details: in vivo, 336 h
# Rattus norvegicus [44] = experiment: Toxicity in rat up to 300 mg/kg/day, po measured over 14 days by microscopic study; assay type: organism-based; details: in vivo, 336 h
# [45] = Unbound Cmax in rat at 300 mg/kg, po administered as single dose measured on day 14; assay type: ADME, organism-based; details: in vivo
# [46] = Average plasma concentration in rat at 300 mg/kg, po administered as single dose measured on day 14; assay type: ADME, organism-based; details: in vivo
# Rattus norvegicus [47] = experiment: Toxicity in po dosed rat assessed as drug tolerance measured over 14 days; assay type: organism-based; details: in vivo, 336 h
# [48] = Toxicity in dog up to 100 mg/kg/day, po measured over 14 days by histologic test; assay type: organism-based, Canis lupus familiaris; details: in vivo, 336 h
# [49] = Toxicity in dog assessed as emesis at 100 mg/kg/day, po measured over 14 days by histologic test; assay type: organism-based, Canis lupus familiaris; details: in vivo, 336 h
# [50] = Toxicity in dog assessed as salivation at 100 mg/kg/day, po measured over 14 days by histologic test; assay type: organism-based, Canis lupus familiaris; details: in vivo, 336 h
# [51] = Toxicity in dog assessed as decrease in hepatic glycogen content at 100 mg/kg/day, po measured over 14 days; assay type: organism-based, Canis lupus familiaris; details: in vivo, 336 h
# [52] = Toxicity in dog assessed as decrease in serum glucose at 100 mg/kg/day, po measured over 14 days; assay type: organism-based, Canis lupus familiaris; details: in vivo, 336 h
# [53] = Unbound Cmax in dog at 100 mg/kg, po administered as single dose measured on day 14; assay type: ADME, organism-based, Canis lupus familiaris; details: in vivo
# [54] = Average plasma concentration in dog at 100 mg/kg, po administered as single dose measured on day 14; assay type: ADME, organism-based, Canis lupus familiaris; details: in vivo
# Rattus norvegicus [55] = experiment: Cardiovascular toxicity in rat up to 30 mg/kg/day, po measured over 14 days; assay type: organism-based; details: in vivo, 336 h
# Rattus norvegicus [56] = experiment: Toxicity in rat assessed as increase in blood pressure at 100 mg/kg/day, po measured over 14 days; assay type: organism-based; details: in vivo, 336 h
# [57] = Unbound Cmax in rat at 30 mg/kg, po administered as single dose measured on day 14; assay type: ADME, organism-based; details: in vivo
# [58] = Average plasma concentration in rat at 30 mg/kg, po administered as single dose measured on day 14; assay type: ADME, organism-based; details: in vivo
structure (smiles),measurement,setting,value
N#Cc1cc(S(=O)(=O)Nc2ccc(F)cn2)ccc1Oc1ccc(CO)c(Cl)c1,microsomal CLint,[1],< 14 µL/min/mg
same,efflux ratio,P-gp,1.9
same,efflux ratio,BCRP (ABCG2),34
same,solubility,[2],15.3 µM
same,pKa,[3],5.7
same,microsomal CLint,[4],< 10 µL/min/mg
same,logD,[5],2.1
same,Papp,[6],12 ×10⁻⁶ cm/s
same,microsomal CLint,[7],< 18 µL/min/mg
same,fraction unbound,[8],0.0083
same,fraction unbound,[9],0.0043
same,fraction unbound,[10],0.014
same,fold change (FC),[11],1.181
same,fold change (FC),[12],1.124
same,fold change (FC),[13],1.48
same,IC50,Cytochrome P450 1A2,> 30 µM
same,IC50,Cytochrome P450 2C8,9.9 µM
same,IC50,Cytochrome P450 2C9,2 µM
same,IC50,Cytochrome P450 2C19,17.5 µM
same,IC50,Cytochrome P450 2D6,> 30 µM
same,IC50,Cytochrome P450 3A4,> 30 µM
same,IC50,[14],14.3 µM
same,IC50,[15],0.5 µM
same,IC50,[16],15 µM
same,Activity,[17],105 µM
same,Activity,[18],Non-Toxic
same,Activity,[19],Non-Toxic
same,IC50,[20],> 100 µM
same,IC50,[21],> 30 µM
same,IC50,[22],> 30 µM
same,Ki,[23],> 10 µM
same,hepatocyte CLint,[24],23 µL/min/1e6 cells
same,hepatocyte CLint,[25],82 µL/min/1e6 cells
same,hepatocyte CLint,[26],< 6 µL/min/1e6 cells
same,clearance,[27],1.3 mL/min/kg
same,CL free,[28],93 mL/min/kg
same,half-life,[29],3.9 h
same,Vd,[30],0.27 L/kg
same,bioavailability,[31],50%
same,dose excreted,[32],10%
same,Drug metabolism,[33],Metabolite_Detected
same,Drug metabolism,[34],Metabolite_Detected
same,Drug metabolism,[35],Metabolite_Detected
same,Activity,[36],<= 100 mg/kg/day
same,Activity,[37],Non-Toxic
same,Activity,Rattus norvegicus [38],Non-Toxic
same,Activity,Rattus norvegicus [39],Non-Toxic
same,Activity,Rattus norvegicus [40],Non-Toxic
same,Activity,Rattus norvegicus [41],Non-Toxic
same,Activity,Rattus norvegicus [42],Non-Toxic
same,Activity,Rattus norvegicus [43],Non-Toxic
same,Activity,Rattus norvegicus [44],Non-Toxic
same,fCmax,[45],537 nM
same,Cave,[46],240 nM
same,Activity,Rattus norvegicus [47],<= 300 mg/kg/day
same,Activity,[48],Non-Toxic
same,Activity,[49],Toxic
same,Activity,[50],Toxic
same,Activity,[51],Toxic
same,Activity,[52],Toxic
same,fCmax,[53],3.905 µM
same,Cave,[54],1019 nM
same,Activity,Rattus norvegicus [55],Non-Toxic
same,Activity,Rattus norvegicus [56],Non-Toxic
same,fCmax,[57],98 nM
same,Cave,[58],43 nM
